In article PMC4589318, “Synthesis of Triazole Schiff’s Base Derivatives and Their Inhibitory Kinetics on Tyrosinase Activity” (PLoS ONE, 2015):

How the values were obtained:
[1] = ABTS free-radical scavenging antioxidant assay; conditions: absorbance at 734 nm
Experimental: ABTS free-radical scavenging assay was used to test the antioxidant capacity of compounds Y1 to Y4. The method can be found in many articles. 7 mM ABTS and 2.45 mM ammonium persulfate were blended and stored in a dark place 16 hours, and then diluted by 80% ethanol to obtain the working solution which gave an absorbance of 0.69 at 734 nm. The working solution and compounds were mixed and allowed to react for ten minutes, and then measured the absorbance at 734 nm (AI) was measured using spectrophotometer. L-ascorbic acid and 80% ethanol was used as a positive and blank control, respectively. The A0 value was the blank absorbance. The antioxidant rate (%) = (A0-AI)/A0 * 100%

[2] = molecular target: mushroom tyrosinase (Agaricus bisporus, UniProt C7FF04); assay: Diphenolase activity of mushroom tyrosinase (L-DOPA substrate); format: biochemical; conditions: for Inhibition type: Lineweaver-Burk plots; for Inhibition type / KIS (inhibitor bonding with enzyme-substrate complex) / K IS (Table 1) / Inhibitory mechanisms: diphenolase; for KIS (inhibitor bonding with enzyme-substrate complex) / K IS (Table 1): L-DOPA; for KIS (inhibitor bonding with enzyme-substrate complex): secondary plot of intercepts; for K IS (Table 1): unit not given; for Inhibitory mechanisms: residual activity vs enzyme concentration
Chain of mushroom tyrosinase (C7FF04 1-392): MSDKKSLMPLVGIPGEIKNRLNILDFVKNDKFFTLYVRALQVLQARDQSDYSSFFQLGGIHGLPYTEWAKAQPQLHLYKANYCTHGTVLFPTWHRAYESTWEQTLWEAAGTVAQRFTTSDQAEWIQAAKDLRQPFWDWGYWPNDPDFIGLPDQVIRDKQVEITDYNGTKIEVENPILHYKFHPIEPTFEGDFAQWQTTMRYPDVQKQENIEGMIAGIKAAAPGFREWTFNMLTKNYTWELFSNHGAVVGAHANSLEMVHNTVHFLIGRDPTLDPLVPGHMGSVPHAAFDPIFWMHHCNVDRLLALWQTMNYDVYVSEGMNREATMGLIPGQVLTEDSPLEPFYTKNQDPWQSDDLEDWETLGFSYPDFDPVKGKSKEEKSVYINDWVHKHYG
Experimental: L-Tyr and L-DOPA were used as the substrate to test the monophenolase and diphenolase activities of tyrosinase, respectively. The reaction system (3 ml) contained 1.1 mM L-Tyr or 0.5 mM L-DOPA, 25 mM PBS buffer (pH 6.8) and different concentrations of the inhbitors. For monophenolase and diphenolase activities, the final concentration of tyrosinase was 33.3μg/ml and 6μg/ml, respectively. The increased optical density with the oxidation of the substrates at 475 nm (the absorption coefficient was 3700 M^−1cm^−1) within a certain time were measured by DU800 spectrophotometer. […] The Michaelis-Menten constant Km of tyrosinase was determined by Lineweaver-Burk plot with different concentrations of L-DOPA as substrate and the inhibition constants KI and KIS were determined by the secondary plots of the apparent Km/Vm or 1/Vm versus the concentration of the inhibitors. The inhibition mechanism was reflected by the […] with various concentrations of mushroom tyrosinase.

[3] = molecular target: T1, tyrosinase (Agaricus bisporus, UniProt C7FF04); assay: Fluorescence quenching of tyrosinase; format: binding, mushroom; conditions: 0.3 mg/ml tyrosinase, excitation 280 nm, inhibitor 10 to 70 μM
T1 construct: purchased Sigma Chemical Co. (St. Louis, MO, USA); host or cells: mushroom (natural source)
T1 sequence (C7FF04 1-392 limits assumed): as the sequence (C7FF04 1-392) above
Experimental: Fluorescence quenching means the decrease of fluorescence intensity between the fluorescent molecules and solute molecules. This method was usually used to study the interaction between conformation of protein molecules and small molecules. Cary Eclipse fluorescence spectrophotometer was used to record the fluorescence intensities with an excitation wavelength of 280 nm and emission slit widths of 5 nm. […] In this study, the inhibitor was added in 0.3 mg/ml tyrosinase solution to detect the fluorescence intensity changes and the final concentrations of inhibitor range from 10 to 70 μM.
Fluorescence quenching can be divided into static quenching and dynamic quenching. Dynamic quenching is a process, which has energy or electron transfer, while the static quenching process will generate complexes without fluorescence. The quenching rate between the fluorescent molecules and quenching agents followed the Stem.Volmer curve equation [43]: F0/F=1+KSV[Q]
In the formula, F0 is the intensity of fluorescence without quenching agent, F is the fluorescence intensity after adding quencher, Ksv (L/mol) represents the relationship of dynamic equilibrium between biological macromolecules and fluorescence quencher molecules after diffusing and colliding, and [Q] is the concentration of quencher. From Fig 4D, the Ksv of Y1, Y2 and Y3 was determined to be 94437, 7160983 and 159186 L/mol, respectively.

Compound | antioxidant capacity rank order [1] | Inhibition type [2] | KIS (inhibitor bonding with enzyme-substrate complex) [2] [µM] | K IS (Table 1) [2] | Inhibitory mechanisms [2] | Ksv (Stern-Volmer quenching constant) [3] [L/mol] | antityrosinase activity (diphenolase screen) ([2]; L-DOPA substrate)
NNc1nnc(S)n1N [AHMZ, 4-Amino-3-hydrazino-5-mercapto-1,2,4-triazole, reference compound] | Y1 > Y2 > Y3 > Y4 > Vc > AHMZ | – | – | – | – | – | –
O=C1O[C@H]([C@@H](O)CO)C(O)=C1O [Vc, L-ascorbic acid, reference compound] | Y1 > Y2 > Y3 > Y4 > Vc > AHMZ | – | – | – | – | – | –
Nn1c(S)nnc1N/N=C\c1cccc(O)c1 [Compound Y2, (Z)-3-((2-(4-amino-5-mercapto-4H-1,2,4-triazol-3-yl)hydrazono)methyl)phenol] | Y1 > Y2 > Y3 > Y4 > Vc > AHMZ | Mixed | 27.8 | 28 | Reversible | – | –
Nn1c(S)nnc1N/N=C\c1cccc(F)c1 [Compound Y1, (Z)-4-amino-5-(2-(3-fluorobenzylidene)hydrazinyl)-4H-1,2,4-triazole-3-thiol] | Y1 > Y2 > Y3 > Y4 > Vc > AHMZ | Mixed | 4 | 4 | Reversible | 94437 | –
Nn1c(S)nnc1N/N=C\c1ccccc1O [Compound Y3, (Z)-2-((2-(4-amino-5-mercapto-4H-1,2,4-triazol-3-yl)hydrazono)methyl)phenol] | Y1 > Y2 > Y3 > Y4 > Vc > AHMZ | Mixed | 21.04 | 21.04 | Reversible | 159186 | –
Oc1cccc(/C=N\Nc2nnc(S)n2/N=C/c2cccc(O)c2)c1 [Compound Y4, 3-((Z)-(2-(4-(((E)-3-hydroxybenzylidene)amino)-5-mercapto-4H-1,2,4-triazol-3-yl)hydrazono)methyl)phenol] | Y1 > Y2 > Y3 > Y4 > Vc > AHMZ | – | – | – | – | – | almost do not have antityrosinase activity
